The values that follow are results of earlier work, collected in PubChem BioAssay AID1259409 (Chemical Carcinogenesis Research Information System (CCRIS), 2018).

The structures appear in SMILES notation.

In the data set the test system is rodent chemically induced tumor inhibition, incidence and multiplicity. Kind of data set: CCRIS tumor inhibitor studies.

For `CC1=C(/C=C/C(C)=C/C=C/C(C)=C/C(=O)NCCCO)C(C)(C)CCC1`, the “tumour outcome (control, treated, inhibition, significance)” value (Carcinogen: N-BUTYL-N-(4-HYDROXYBUTYL)NITROSAMINE, 3817-11-6, Dose [Inhibitor]: 1.5 MMOL/KG/D IN DIET FOR 108 D STARTING 1 WK POST CARCINOGEN TREATMENT (STUDY DURATION: 171 D), Route [Inhibitor]: ORAL, Species: MOUSE, Strain/Sex: BDF/MALE, Target Tissue: Type of Lesion: URINARY BLADDER: TRANSITIONAL CELL CARCINOMA, Dose [Carcinogen]: 5 MG 2/WK FOR 9 WK, Promoter: NONE USED) is recorded as 31/55 (56%), 28/54 (51%), 9%, not significant; the “tumour outcome (control, treated, inhibition, significance)” value (Carcinogen: N-NITROSOBIS(2-OXOPROPYL)AMINE, 60599-38-4, Dose [Inhibitor]: 0.25 MMOL/KG OF DIET FOR 357 D STARTING 2 WK AFTER LAST CARCINOGEN DOSE AND INTERRUPTED BY A 1 WK REST PERIOD OF VEHICLE, Route [Inhibitor]: ORAL, Species: HAMSTER, Strain/Sex: SYRIAN/FEMALE, Target Tissue: Type of Lesion: LIVER: HEPATOCELLULAR CARCINOMA, Dose [Carcinogen]: 20 MG/KG INJECTION GIVEN TWICE 1 WK APART, Promoter: NONE USED) was 5%, 42%, -740%, not calculated; the “tumour outcome (control, treated, inhibition, significance)” value (Carcinogen: N-NITROSOBIS(2-OXOPROPYL)AMINE, 60599-38-4, Dose [Inhibitor]: 0.25 MMOL/KG OF DIET FOR 357 D STARTING 2 WK AFTER LAST CARCINOGEN DOSE AND INTERRUPTED BY A 1 WK REST PERIOD OF VEHICLE, Route [Inhibitor]: ORAL, Species: HAMSTER, Strain/Sex: SYRIAN/FEMALE, Target Tissue: Type of Lesion: PANCREAS: CARCINOMA, Dose [Carcinogen]: 20 MG/KG INJECTION GIVEN TWICE 1 WK APART, Promoter: NONE USED) is given as 38%, 32%, 16%, not calculated; the “tumour outcome (control, treated, inhibition, significance)” value (Carcinogen: N-NITROSOBIS(2-OXOPROPYL)AMINE, 60599-38-4, Dose [Inhibitor]: 0.25 MMOL/KG OF DIET FOR 357 D STARTING 2 WK AFTER LAST CARCINOGEN DOSE AND INTERRUPTED BY A 1 WK REST PERIOD OF VEHICLE, Route [Inhibitor]: ORAL, Species: HAMSTER, Strain/Sex: SYRIAN/MALE, Target Tissue: Type of Lesion: LIVER: HEPATOCELLULAR CARCINOMA, Dose [Carcinogen]: 20 MG/KG INJECTION GIVEN TWICE 1 WK APART, Promoter: NONE USED) is given as 7%, 0%, 100%, not calculated; the “tumour outcome (control, treated, inhibition, significance)” value (Carcinogen: N-NITROSOBIS(2-OXOPROPYL)AMINE, 60599-38-4, Dose [Inhibitor]: 0.25 MMOL/KG OF DIET FOR 357 D STARTING 2 WK AFTER LAST CARCINOGEN DOSE AND INTERRUPTED BY A 1 WK REST PERIOD OF VEHICLE, Route [Inhibitor]: ORAL, Species: HAMSTER, Strain/Sex: SYRIAN/MALE, Target Tissue: Type of Lesion: PANCREAS: CARCINOMA, Dose [Carcinogen]: 20 MG/KG INJECTION GIVEN TWICE 1 WK APART, Promoter: NONE USED) is given as 34%, 27%, 21%, not calculated; the “tumour outcome (control, treated, inhibition, significance)” value (Carcinogen: N-NITROSOBIS(2-OXOPROPYL)AMINE, 60599-38-4, Dose [Inhibitor]: 0.5 MMOL/KG OF DIET FOR 357 D STARTING 2 WK AFTER LAST CARCINOGEN DOSE AND INTERRUPTED BY A 1 WK REST PERIOD OF VEHICLE-, Route [Inhibitor]: ORAL, Species: HAMSTER, Strain/Sex: SYRIAN/FEMALE, Target Tissue: Type of Lesion: LIVER: HEPATOCELLULAR CARCINOMA, Dose [Carcinogen]: 20 MG/KG INJECTION GIVEN TWICE 1 WK APART, Promoter: NONE USED) is given as 5%, 9%, -80%, not calculated. Further, the “tumour outcome (control, treated, inhibition, significance)” value is on record as 38%, 27%, 29%, not calculated (Carcinogen: N-NITROSOBIS(2-OXOPROPYL)AMINE, 60599-38-4, Dose [Inhibitor]: 0.5 MMOL/KG OF DIET FOR 357 D STARTING 2 WK AFTER LAST CARCINOGEN DOSE AND INTERRUPTED BY A 1 WK REST PERIOD OF VEHICLE-, Route [Inhibitor]: ORAL, Species: HAMSTER, Strain/Sex: SYRIAN/FEMALE, Target Tissue: Type of Lesion: PANCREAS: CARCINOMA, Dose [Carcinogen]: 20 MG/KG INJECTION GIVEN TWICE 1 WK APART, Promoter: NONE USED); 7%, 12%, -71%, not calculated (Carcinogen: N-NITROSOBIS(2-OXOPROPYL)AMINE, 60599-38-4, Dose [Inhibitor]: 0.5 MMOL/KG OF DIET FOR 357 D STARTING 2 WK AFTER LAST CARCINOGEN DOSE AND INTERRUPTED BY A 1 WK REST PERIOD OF VEHICLE-, Route [Inhibitor]: ORAL, Species: HAMSTER, Strain/Sex: SYRIAN/MALE, Target Tissue: Type of Lesion: LIVER: HEPATOCELLULAR CARCINOMA, Dose [Carcinogen]: 20 MG/KG INJECTION GIVEN TWICE 1 WK APART, Promoter: NONE USED); 34%, 40%, -18%, not calculated (Carcinogen: N-NITROSOBIS(2-OXOPROPYL)AMINE, 60599-38-4, Dose [Inhibitor]: 0.5 MMOL/KG OF DIET FOR 357 D STARTING 2 WK AFTER LAST CARCINOGEN DOSE AND INTERRUPTED BY A 1 WK REST PERIOD OF VEHICLE-, Route [Inhibitor]: ORAL, Species: HAMSTER, Strain/Sex: SYRIAN/MALE, Target Tissue: Type of Lesion: PANCREAS: CARCINOMA, Dose [Carcinogen]: 20 MG/KG INJECTION GIVEN TWICE 1 WK APART, Promoter: NONE USED).

Consider `CC(C)(C)NC(=O)[C@H]1CC[C@H]2[C@@H]3CC[C@H]4NC(=O)C=C[C@]4(C)[C@H]3CC[C@]12C`, for which the “tumour outcome (control, treated, inhibition, significance)” value is, setting by setting: (Carcinogen: N-BUTYL-N-(4-HYDROXYBUTYL)NITROSAMINE, 3817-11-6, Dose [Inhibitor]: 0, 2 MG/KG 2/WK FOR 11 WK BEGINNING POST CARCINOGEN TREATMENT (STUDY DURATION: 21WK), Route [Inhibitor]: ORAL, Species: RAT, Strain/Sex: WISTAR/MALE, Target Tissue: Type of Lesion: URINARY BLADDER: CARCINOMA, Dose [Carcinogen]: 0.05% IN DRINKING WATER FOR 10 WK, Promoter: NONE USED) 15/17 (88%), 12/17 (71%), 19%, not significant; (Carcinogen: N-BUTYL-N-(4-HYDROXYBUTYL)NITROSAMINE, 3817-11-6, Dose [Inhibitor]: 0, 2 MG/KG 2/WK FOR 13 WK BEGINNING POST CARCINOGEN TREATMENT (STUDY DURATION: 20WK), Route [Inhibitor]: ORAL, Species: RAT, Strain/Sex: WISTAR/MALE, Target Tissue: Type of Lesion: URINARY BLADDER: CARCINOMA, Dose [Carcinogen]: 0.05% IN DRINKING WATER FOR 7 WK, Promoter: NONE USED) 25/39 (64%), 9/20 (45%), 30%, not significant; (Carcinogen: N-BUTYL-N-(4-HYDROXYBUTYL)NITROSAMINE, 3817-11-6, Dose [Inhibitor]: 0, 4 MG/KG 2/WK FOR 13 WK BEGINNING POST CARCINOGEN TREATMENT (STUDY DURATION: 20 WK), Route [Inhibitor]: ORAL, Species: RAT, Strain/Sex: WISTAR/MALE, Target Tissue: Type of Lesion: URINARY BLADDER: CARCINOMA, Dose [Carcinogen]: 0.05% IN DRINKING WATER FOR 7 WK, Promoter: NONE USED) 25/39 (64%), 9/20 (45%), 30%, not significant; (Carcinogen: N-BUTYL-N-(4-HYDROXYBUTYL)NITROSAMINE, 3817-11-6, Dose [Inhibitor]: 0, 8 MG/KG 2/WK FOR 13 WK BEGINNING POST CARCINOGEN TREATMENT (STUDY DURATION: 20 WK), Route [Inhibitor]: ORAL, Species: RAT, Strain/Sex: WISTAR/MALE, Target Tissue: Type of Lesion: URINARY BLADDER : CARCINOMA, Dose [Carcinogen]: 0.05% IN DRINKING WATER FOR 7 WK, Promoter: NONE USED) 25/39 (64%), 8/20 (40%), 38%, not significant; (Carcinogen: N-METHYL-N-NITROSOUREA, 684-93-5, Dose [Inhibitor]: 0.09 MG/200 G BW/D FOR 2 MO BEGINNING 9.5 MO POST-CARCINOGEN DOSE (STUDY DURATION: 11.5 MO), Route [Inhibitor]: GAVAGE, Species: RAT, Strain/Sex: WISTAR/MALE, Target Tissue: Type of Lesion: PROSTATE: ADENOCARCINOMA, Dose [Carcinogen]: 35 MG/KG BW ONCE AT INITIATION OF STUDY, Promoter: TESTOSTERONE PROPIONATE, 57-85-2) 9/14 (64%), 1/10 (10%), 84%, not determined.

As for `CC#C[C@]1(O)CC[C@H]2[C@@H]3CCC4=CC(=O)CCC4=C3[C@@H](c3ccc(N(C)C)cc3)C[C@@]21C`, the “tumour outcome (control, treated, inhibition, significance)” value (Carcinogen: 7,12-Dimethylbenz(a)anthracene (57-97-6), Dose [Inhibitor]: 10 mg administered daily for 28 days, Route [Inhibitor]: Subcutaneous, Species: Rat, Strain/Sex: Sprague-Dawley/Female, Target Tissue: Type of Lesion: Mammary gland: Adenocarcinoma and papillary carcinoma, Dose [Carcinogen]: 10 mg/kg once at 50 days of age, Promoter: None) is listed as 12/13 (92%), 13/14 (93%), 0% ns.

For the compound `CC(C)[C@@H]1CC[C@@H](C)C[C@H]1O`, the “tumour outcome (control, treated, inhibition, significance)” value runs as follows: (Carcinogen: AZOXYMETHANE, 25843-45-2, Dose [Inhibitor]: 0, 5 MG/G IN DIET FOR 22 WK BEGINNING 3 D POST LAST CARCINOGEN DOSE (STUDY DURATION: 25 WK), Route [Inhibitor]: ORAL, Species: RAT, Strain/Sex: F344/MALE, Target Tissue: Type of Lesion: DUODENUM: ADENOCARCINOMA, Dose [Carcinogen]: 15 MG/KG BW 2/WK FOR 3 WK, Promoter: NONE USED) 50%, 42%, 16%, not significant; (Carcinogen: AZOXYMETHANE, 25843-45-2, Dose [Inhibitor]: 0, 5 MG/G IN DIET FOR 22 WK BEGINNING 3 D POST LAST CARCINOGEN DOSE (STUDY DURATION: 25 WK), Route [Inhibitor]: ORAL, Species: RAT, Strain/Sex: F344/MALE, Target Tissue: Type of Lesion: LARGE BOWEL: ADENOMATOUS POLYP, Dose [Carcinogen]: 15 MG/KG BW 2/WK FOR 3 WK, Promoter: NONE USED) 82%, 88%, -7%, not significant.
